Source: ChEMBL document CHEMBL1127983, “The synthesis and evaluation of peptidyl aspartyl aldehydes as inhibitors of ice” (Bioorg Med Chem Lett, 1994)
Square brackets hold non-standard residues; d marks the D form. Peptide text beside a SMILES is read from it. βAla = NCCC(=O)O

target: T1, Caspase-1 (Homo sapiens, UniProt P29466); test: Binding affinity towards IL-1 beta converting enzyme (ICE)
T1 sequence (P29466 whole entry): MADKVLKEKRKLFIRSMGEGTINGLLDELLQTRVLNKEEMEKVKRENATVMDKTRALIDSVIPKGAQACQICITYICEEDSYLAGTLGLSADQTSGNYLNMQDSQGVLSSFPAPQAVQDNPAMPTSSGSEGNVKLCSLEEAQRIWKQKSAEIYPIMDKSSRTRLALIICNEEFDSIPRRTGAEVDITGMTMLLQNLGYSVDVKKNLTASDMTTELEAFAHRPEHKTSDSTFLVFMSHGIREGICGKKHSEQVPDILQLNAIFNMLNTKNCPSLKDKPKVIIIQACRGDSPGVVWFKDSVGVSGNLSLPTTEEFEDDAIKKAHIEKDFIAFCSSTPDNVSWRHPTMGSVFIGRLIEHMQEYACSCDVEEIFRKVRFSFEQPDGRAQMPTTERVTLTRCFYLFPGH

SMILES | Ki [µM]
CC(=O)N[C@@H](Cc1ccc(O)cc1)C(=O)N[C@H](C(=O)N[C@@H](C)C(=O)N(C)[C@H](C=O)CC(=O)O)C(C)C | > 20
CC(=O)N[C@@H](Cc1ccc(O)cc1)C(=O)N(C)[C@H](C(=O)N[C@@H](C)C(=O)N[C@H](C=O)CC(=O)O)C(C)C | 50
CC(=O)N(C)[C@@H](Cc1ccc(O)cc1)C(=O)N[C@H](C(=O)N[C@@H](C)C(=O)N[C@H](C=O)CC(=O)O)C(C)C | 0.12
CC(=O)N[C@@H](Cc1ccc(O)cc1)C(=O)N[C@H](C(=O)N[C@@H](C)C(=O)N[C@@H]1COC(=O)C1)C(C)C | > 20
CC(=O)N[C@@H](Cc1ccc(O)cc1)C(=O)N[C@H](C(=O)N[C@@H](C)C(=O)N[C@H](/C=N\NC(N)=O)CC(=O)O)C(C)C | 0.5
CC(=O)N[C@@H](Cc1ccc(O)cc1)C(=O)N[C@H](C(=O)N[C@@H](C)C(=O)N[C@@H]1CNC(=O)C1)C(C)C | > 20
CC(=O)N[C@@H](C)C(=O)N[C@H](C=O)CC(=O)O (Ac-Ala-Asp-aldehyde) | > 20
CC(=O)N[C@@H](Cc1ccc(O)cc1)C(=O)N[C@@H](C)C(=O)N[C@H](C=O)CC(=O)O (Ac-Tyr-Ala-Asp-aldehyde) | 2.1
CC(=O)N[C@@H](Cc1ccc(O)cc1)C(=O)N[C@H](C=O)CC(=O)O (Ac-Tyr-Asp-aldehyde) | > 20
CC(=O)N[C@@H](Cc1ccc(O)cc1)C(=O)N[C@H](C(=O)N[C@H](C=O)CC(=O)O)C(C)C (Ac-Tyr-Val-Asp-aldehyde) | 2.4
CC(=O)N[C@H](C(=O)N[C@@H](C)C(=O)N[C@H](C=O)CC(=O)O)C(C)C (Ac-Val-Ala-Asp-aldehyde) | 1.7
CC(=O)N[C@@H](Cc1ccc(O)cc1)C(=O)N[C@H](C(=O)N[C@@H](C)C(=O)NCCC(=O)O)C(C)C (Ac-YVA[βAla]-OH) | > 20

Now those with a lower Ki, led by results:

Ki [µM] | SMILES
0.059 | CC(=O)N[C@@H](Cc1ccc(O)cc1)C(=O)N[C@H](C(=O)N(C)[C@@H](C)C(=O)N[C@H](C=O)CC(=O)O)C(C)C
0.042 | CC(=O)N[C@@H](Cc1ccccc1)C(=O)N[C@H](C(=O)N[C@@H](C)C(=O)N[C@H](C=O)CC(=O)O)C(C)C (Ac-FVAD-aldehyde)
0.028 | CC(C)[C@H](NC(=O)CC(Cl)Cl)C(=O)N[C@@H](C)C(=O)N[C@H](C=O)CC(=O)O
0.0075 | CC(=O)N[C@@H](Cc1cc(I)c(O)c(I)c1)C(=O)N[C@H](C(=O)N[C@@H](C)C(=O)N[C@H](C=O)CC(=O)O)C(C)C
0.006 | CC(=O)N[C@@H](Cc1ccc(O)cc1)C(=O)N[C@H](C(=O)N[C@@H](C)C(=O)N[C@H](C=O)CC(=O)O)C(C)C
